In patent US20140038991A1, “Protein Kinase Inhibitors” (Astar Biotech LLC, priority 2012, published 2014):

Tests used:
[1] = system: LNCaP (with PTEN-null, prostate tumor cell line); assay: Cell-based viability assay (trypan blue exclusion) in LNCaP cells; settings: 72 hours treatment, read-out: LNCaP (with PTEN-null, prostate tumor cell line), IC50 (nM) (using cell trypan blue exclusion assay to detect the cell viability)
Method: 1. Cell-Based Assays: Cells were seeded in 24-well plates with a concentration of 10×10^5 cells/mL/well, and treated with the designated agents in the next day. After 72 hours treatment, cells were harvested and stained using the trypan blue exclusion method and measured using the TC-10™ automated cell counter (Bio-rad).

[2] = system: downstream targets of PI3K/mTOR in T47D (with PIK3CA mutation, breast tumor cell line); assay: Western blot detection of downstream targets of PI3K/mTOR in T47D cells; type: cell-based; settings: read-out: T47D (with PIK3CA mutation, breast tumor cell line), IC50 (nM) (using Westin blot to detect the downstream targets of PI3K/mTOR)
Method: a. Harvest Cells and Run Cell Extracts on a SDS-PAGE Gel
Cells were harvested bytrypsinization and centrifugation at 500 rpm for 5 min and the supernatant was removed. Cell pellet was resuspended with appropriate volume of 1× lysis buffer (10× lysis buffer from Cell Signaling Technology, Catalog #9803, Boston, Mass.) containing protease inhibitors (Protease Inhibitor Cocktail Tablets, Roche, cat#11 697 498 001 and PMSF, NaF, Na3VO3, Leupeptin and pepstatin A), then directly sonicated the suspension for 5 seconds. Protein concentration was measured using Pierce BAC protein assay kit (catalog #23227). The protein sample was read with EL800 of Bio-TEK at […] wave length and the concentration was calculated. 60 ug protein of each sample was loaded on an 8-15% SDS-PAGE and run at 120V for an appropriate period till the dye front reached the bottom of the gel. […]
b. Transfer the Protein from the Gel to a Membrane
Placed a cassette using pre-wet Watman paper(bio-rad, catalog #1703932), gel and membrane (PVDF membrane with pre-soak in methanol for 3 min, then equilibrated in transfer buffer for 5 min), and performed the transfer using bio-rad transfer system at 100v for 1.5 hr at cool room.
Removed the membrane from the transfer apparatus and placed it in the blocking buffer [5% non-fat dry milk in 1×TBS-T containing NaCl 8 g, Tris-Cl 2.37 g, TrisBase 0.6 g in 1 liter of water (pH 7.6) and 1 ml of Tween-20]. Incubated the membrane in the blocking buffer on a shaker for 0.5-1 hr at room temperature.
Diluted the primary antibody at 1:1000 using TBS-T containing 5% non-fat dry milk, and incubated the membrane in the primary antibody solution on a shaker overnight at 4° C. Then removed the primary antibody solution, and washed the membrane with 1×TBS-T 3 times for 10 min each time. e. Secondary Antibody, Substrate Addition and Film Explosure
Diluted the second antibody (cell signaling technology cat#7076 anti-mouse IgG, HRP-linked antibody, or cat#7074, anti-rabbit IgG, HRP-linked antibody) at 1:3000 using TBS-T containing 5% non-fat dry milk. Decanted the wash buffer and incubated the membrane in the prepared secondary antibody solution on shaker for 2 hr at room temperature. Decanted the secondary antibody solution and washed thoroughly with 1×TBS-T for 3 times for 10 min each time. Prepared for substrate solution: luminal/enhancer solution mix with stable peroxide solution (Amersham ECL Plus™ Western Blotting Detection Reagents. Cat#: RPN2132). Total amount of substrate solution needed was approximate 2 ml per membrane. Placed the membrane with the protein side up on a flat Saran wrap, and dropped the prepared substrate solution over the membrane, and incubated the membrane for 2 minutes. […]

Row | SMILES | IC50 [1] [nM] | IC50 [2] [nM]
1 | COc1ncc(-c2cc3c(C)nc(N)nc3n([C@H]3CC[C@H](OCCO)CC3)c2=O)cc1NS(=O)(=O)c1c(F)cccc1F [Example 6, N-(5-(2-amino-8-(trans-4-(2-hydroxyethoxy)cyclohexyl)-4-methyl-7-oxo-7,8-dihydropyrido[2,3-d]pyrimidin-6-yl)-2-methoxypyridin-3-yl)-2,6-difluorobenzenesulfonamide] | 60 | –
2 | COc1ncc(-c2cc3c(C)nc(N)nc3n([C@H]3CC[C@H](OCCO)CC3)c2=O)cc1NS(=O)(=O)c1ccc(C)cc1 [Example 8, N-(5-(2-amino-8-(trans-4-(2-hydroxyethoxy)cyclohexyl)-4-methyl-7-oxo-7,8-dihydropyrido[2,3-d]pyrimidin-6-yl)-2-methoxypyridin-3-yl)-4-methylbenzenesulfonamide] | 45 | 15
3 | COc1ncc(-c2cc3c(C)nc(N)nc3n([C@H]3CC[C@H](OCCO)CC3)c2=O)cc1NS(=O)(=O)c1ccc(F)cc1 [Example 5, N-(5-(2-amino-8-(trans-4-(2-hydroxyethoxy)cyclohexyl)-4-methyl-7-oxo-7,8-dihydropyrido[2,3-d]pyrimidin-6-yl)-2-methoxypyridin-3-yl)-4-fluorobenzenesulfonamide] | 55 | –
4 | COc1ncc(-c2cc3c(C)nc(N)nc3n([C@H]3CC[C@H](OCCO)CC3)c2=O)cc1NS(C)(=O)=O [Example 2, N-(5-(2-amino-8-(trans-4-(2-hydroxyethoxy)cyclohexyl)-4-methyl-7-oxo-7,8-dihydropyrido[2,3-d]pyrimidin-6-yl)-2-methoxypyridin-3-yl)methanesulfonamide] | 150 | –
5 | CCS(=O)(=O)Nc1cc(-c2cc3c(C)nc(N)nc3n([C@H]3CC[C@H](OCCO)CC3)c2=O)cnc1OC [Example 3, N-(5-(2-amino-8-(trans-4-(2-hydroxyethoxy)cyclohexyl)-4-methyl-7-oxo-7,8-dihydropyrido [2,3-d]pyrimidin-6-yl)-2-methoxypyridin-3-yl)ethanesulfonamide] | 140 | –
6 | COc1ccc(-c2cc3c(C)nc(N)nc3n(C3CCC(OCCO)CC3)c2=O)cn1 (stereo not shown) [PF-1502, reference compound] | 75 | 85
7 | COc1ncc(-c2cc3c(C)nc(N)nc3n([C@H]3CC[C@H](OCCO)CC3)c2=O)cc1NS(=O)(=O)c1ccccc1 [Example 1, N-(5-(2-amino-8-(trans-4-(2-hydroxyethoxy)-cyclohexyl)-4-methyl-7-oxo-7,8-dihydropyrido[2,3-d]pyrimidin-6-yl)-2-methoxypyridin-3-yl)benzenesulfonamide] | 35 | 12
8 | COc1ccc(S(=O)(=O)Nc2cc(-c3cc4c(C)nc(N)nc4n([C@H]4CC[C@H](OCCO)CC4)c3=O)cnc2OC)cc1 [Example 7, N-(5-(2-amino-8-(trans-4-(2-hydroxyethoxy)cyclohexyl)-4-methyl-7-oxo-7,8-dihydropyrido[2,3-d]pyrimidin-6-yl)-2-methoxypyridin-3-yl)-4-methoxybenzenesulfonamide] | 40 | 12
9 | COc1ncc(-c2cc3c(C)nc(N)nc3n([C@H]3CC[C@H](OCCO)CC3)c2=O)cc1NS(=O)(=O)C1CC1 [Example 4, N-(5-(2-amino-8-(trans-4-(2-hydroxyethoxy)cyclohexyl)-4-methyl-7-oxo-7,8-dihydropyrido[2,3-d]pyrimidin-6-yl)-2-methoxypyridin-3-yl)cyclopropanesulfonamide] | 130 | –
